Source: PMC7968037 (RSC Advances, 2021)
Read-outs that look alike come from different tables or passages of the source.

Tests used:
[1] = system: MDA-MB-231 (triple negative) breast cancer cells; assay: cells; type: cell-based; details: Homo sapiens, read-out: Growth inhibition [log(IC50 [μM]) ± SEM] (converted)
[2] = in vitro; details: human, Cytotoxicity [log(EC50 [μM]) ± SEM], cellular necrosis, MCF-7, 72 h exposure, 0.32–320 μM; values are logarithms
[3] = system: SK-BR-3 (ER−/PR−/HER2+) breast cancer cells; assay: cells; type: cell-based; details: Homo sapiens, read-out: Growth inhibition [log(IC50 [μM]) ± SEM] (converted)
[4] = in vitro; details: human, Cytotoxicity [log(EC50 [μM]) ± SEM], cellular necrosis, SK-BR-3, 72 h exposure, 0.32–320 μM; values are logarithms
[5] = system: benign MCF-10A breast cells; assay: cells; type: cell-based; details: for Change of cell growth compared to vehicle-treated cells: tested 0.32–320 μM; for IC50: Homo sapiens, read-out: Growth inhibition [log(IC50 [μM]) ± SEM] (converted)
[6] = system: benign MCF-10A breast cells; details: tested 0.32–320 μM; for Concentrations that exerted significant toxicity compared to vehicle: 72 h, p ≤ 0.05, Fig. 5D′; for Concentrations that exerted significant cytotoxicity compared to vehicle: 24 h, p ≤ 0.05, Fig. 5D
[7] = system: MCF-7 (ER+/PR+/HER2−) breast cancer cells; assay: cells; type: cell-based; details: for IC50: Homo sapiens, read-out: Growth inhibition [log(IC50 [μM]) ± SEM] (converted); for Early inhibition of growth compared to vehicle-treated cells: MCF-7, 24 h, tested 0.32–320 μM, Fig. 4A
[8] = in vitro; details: human, Cytotoxicity [log(EC50 [μM]) ± SEM], cellular necrosis, MCF-10A, 72 h exposure, 0.32–320 μM; values are logarithms
[9] = in vitro; details: human, Cytotoxicity [log(EC50 [μM]) ± SEM], cellular necrosis, MDA-MB-231, 72 h exposure, 0.32–320 μM; values are logarithms

Row | SMILES | IC50 ([1]; MDA-MB-231, 24 h) | IC50 ([1]; MDA-MB-231, 72 h) | EC50 [2] | IC50 ([3]; SK-BR-3, 24 h) | IC50 ([3]; SK-BR-3, 72 h) | EC50 [4] | Change of cell growth compared to vehicle-treated cells ([5]; 24 h, Fig. 4D) | Change of cell growth compared to vehicle-treated cells ([5]; 72 h, Fig. 4D′) | IC50 ([5]; 24 h) | IC50 ([5]; 72 h) | Concentrations that exerted significant toxicity compared to vehicle [6] | IC50 ([7]; MCF7, 24 h) | IC50 ([7]; MCF7, 72 h) | EC50 [8] | EC50 [9] | Concentrations that exerted significant cytotoxicity compared to vehicle [6] | Early inhibition of growth compared to vehicle-treated cells [7]
1 | C=C(C[C@H](N)C(=O)O)C(N)=O [Compound 1, (S)-2-Amino-4-carbamoylpent-4-enoic acid] | 141 µM | > 320 µM | 2.95 µM | 7.94 µM | 11.2 µM | 2.04 µM | significant increases | significant increases | > 316 µM | > 316 µM | 3.2 µM | > 320 µM | > 320 µM | > 316 µM | > 316 µM | – | –
2 | C=C(C[C@H](N)C(=O)O)C(=O)Nc1ccccc1 [Compound 3, (S)-2-Amino-4-(phenylcarbamoyl)pent-4-enoic acid] | > 320 µM | > 320 µM | 2.04 µM | 37.2 µM | 1.66 µM | > 316 µM | – | significant increases | > 316 µM | > 316 µM | – | > 320 µM | 251 µM | > 316 µM | > 316 µM | – | –
3 | C=C(C[C@H](N)C(=O)O)C(=O)NCc1ccccc1 [Compound 4, (S)-2-Amino-4-(benzylcarbamoyl)pent-4-enoic acid] | > 320 µM | > 320 µM | 219 µM | 74.1 µM | 0.562 µM | > 316 µM | – | – | > 316 µM | > 316 µM | – | > 320 µM | 195 µM | > 316 µM | > 316 µM | – | –
4 | C=C(C[C@H](N)C(=O)O)C(=O)NCc1ccc(F)cc1 [Compound 5, (S)-2-Amino-4-((4-fluorobenzyl)carbamoyl)pent-4-enoic acid] | > 320 µM | > 320 µM | 55 µM | 3.89 µM | 4.47 µM | 0.389 µM | significant increases | significant increases | > 316 µM | > 316 µM | 320 µM | > 320 µM | 85.1 µM | > 316 µM | 263 µM | 320 µM | –
5 | C=C(C[C@H](N)C(=O)O)C(=O)NCc1ccc([N+](=O)[O-])cc1 [Compound 6, (S)-2-Amino-4-((4-nitrobenzyl)carbamoyl)pent-4-enoic acid] | 219 µM | > 320 µM | 20.4 µM | 12.9 µM | 3.16 µM | 0.437 µM | significant increases | – | > 316 µM | > 316 µM | – | > 320 µM | > 320 µM | > 316 µM | 269 µM | – | –
6 | C=C(C[C@H](N)C(=O)O)C(=O)NC1CC1 [Compound 7, (S)-2-Amino-4-(cyclopropylcarbamoyl)pent-4-enoic acid] | > 320 µM | > 320 µM | > 316 µM | 316 µM | 0.575 µM | > 316 µM | – | significant increases | > 316 µM | > 316 µM | – | 229 µM | > 320 µM | > 316 µM | > 316 µM | – | exerted early inhibition
7 | C=C(C[C@H](N)C(=O)O)C(=O)N1CCCCC1 [Compound 8, (S)-2-Amino-4-(piperidine-1-carbonyl)pent-4-enoic acid] | > 320 µM | > 320 µM | 200 µM | 135 µM | 0.617 µM | > 316 µM | – | significant increases | > 316 µM | > 316 µM | – | > 320 µM | > 320 µM | > 316 µM | > 316 µM | – | –
8 | C=C(C[C@H](N)C(=O)O)C(=O)Nc1ccc(F)cc1 [Compound 9, (S)-2-Amino-4-((4-fluorophenyl)carbamoyl) pent-4-enoic acid] | > 320 µM | > 320 µM | 2.29 µM | 11.5 µM | 4.79 µM | 0.0603 µM | – | – | > 316 µM | > 316 µM | – | > 320 µM | 75.9 µM | > 316 µM | > 316 µM | – | –
9 | C=C(C[C@H](N)C(=O)O)C(=O)Nc1ccc(Cl)cc1 [Compound 10, (S)-2-Amino-4-((4-chlorophenyl)carbamoyl)pent-4-enoic acid] | > 320 µM | > 320 µM | 93.3 µM | 79.4 µM | 3.98 µM | > 316 µM | – | significant increases | > 316 µM | > 316 µM | 100 µM | > 320 µM | 209 µM | > 316 µM | > 316 µM | – | exerted early inhibition
10 | O=C(c1cc(Cc2n[nH]c(=O)c3ccccc23)ccc1F)N1CCN(C(=O)C2CC2)CC1 [Olaparib, reference compound] | 162 µM | 155 µM | 26.3 µM | 1.62 µM | 1.05 µM | 0.0603 µM | – | – | > 316 µM | > 316 µM | 320 µM | > 316 µM | 107 µM | > 316 µM | 97.7 µM | 320 µM | –
11 | CC/C(=C(\c1ccccc1)c1ccc(OCCN(C)C)cc1)c1ccccc1 [Tamoxifen, reference compound] | – | – | – | – | – | 0.331 µM | – | – | – | – | – | – | – | > 316 µM | 30.9 µM | – | –
